Drawing on patent publication US10246426B2, “Triazole compounds as T-type calcium channel blockers” (IDORSIA PHARMACEUTICALS LTD, priority 2014, dated 2019), this text covers IC50 for 35 compounds.

Cav3.2, sequence (O95180 whole entry, looked up): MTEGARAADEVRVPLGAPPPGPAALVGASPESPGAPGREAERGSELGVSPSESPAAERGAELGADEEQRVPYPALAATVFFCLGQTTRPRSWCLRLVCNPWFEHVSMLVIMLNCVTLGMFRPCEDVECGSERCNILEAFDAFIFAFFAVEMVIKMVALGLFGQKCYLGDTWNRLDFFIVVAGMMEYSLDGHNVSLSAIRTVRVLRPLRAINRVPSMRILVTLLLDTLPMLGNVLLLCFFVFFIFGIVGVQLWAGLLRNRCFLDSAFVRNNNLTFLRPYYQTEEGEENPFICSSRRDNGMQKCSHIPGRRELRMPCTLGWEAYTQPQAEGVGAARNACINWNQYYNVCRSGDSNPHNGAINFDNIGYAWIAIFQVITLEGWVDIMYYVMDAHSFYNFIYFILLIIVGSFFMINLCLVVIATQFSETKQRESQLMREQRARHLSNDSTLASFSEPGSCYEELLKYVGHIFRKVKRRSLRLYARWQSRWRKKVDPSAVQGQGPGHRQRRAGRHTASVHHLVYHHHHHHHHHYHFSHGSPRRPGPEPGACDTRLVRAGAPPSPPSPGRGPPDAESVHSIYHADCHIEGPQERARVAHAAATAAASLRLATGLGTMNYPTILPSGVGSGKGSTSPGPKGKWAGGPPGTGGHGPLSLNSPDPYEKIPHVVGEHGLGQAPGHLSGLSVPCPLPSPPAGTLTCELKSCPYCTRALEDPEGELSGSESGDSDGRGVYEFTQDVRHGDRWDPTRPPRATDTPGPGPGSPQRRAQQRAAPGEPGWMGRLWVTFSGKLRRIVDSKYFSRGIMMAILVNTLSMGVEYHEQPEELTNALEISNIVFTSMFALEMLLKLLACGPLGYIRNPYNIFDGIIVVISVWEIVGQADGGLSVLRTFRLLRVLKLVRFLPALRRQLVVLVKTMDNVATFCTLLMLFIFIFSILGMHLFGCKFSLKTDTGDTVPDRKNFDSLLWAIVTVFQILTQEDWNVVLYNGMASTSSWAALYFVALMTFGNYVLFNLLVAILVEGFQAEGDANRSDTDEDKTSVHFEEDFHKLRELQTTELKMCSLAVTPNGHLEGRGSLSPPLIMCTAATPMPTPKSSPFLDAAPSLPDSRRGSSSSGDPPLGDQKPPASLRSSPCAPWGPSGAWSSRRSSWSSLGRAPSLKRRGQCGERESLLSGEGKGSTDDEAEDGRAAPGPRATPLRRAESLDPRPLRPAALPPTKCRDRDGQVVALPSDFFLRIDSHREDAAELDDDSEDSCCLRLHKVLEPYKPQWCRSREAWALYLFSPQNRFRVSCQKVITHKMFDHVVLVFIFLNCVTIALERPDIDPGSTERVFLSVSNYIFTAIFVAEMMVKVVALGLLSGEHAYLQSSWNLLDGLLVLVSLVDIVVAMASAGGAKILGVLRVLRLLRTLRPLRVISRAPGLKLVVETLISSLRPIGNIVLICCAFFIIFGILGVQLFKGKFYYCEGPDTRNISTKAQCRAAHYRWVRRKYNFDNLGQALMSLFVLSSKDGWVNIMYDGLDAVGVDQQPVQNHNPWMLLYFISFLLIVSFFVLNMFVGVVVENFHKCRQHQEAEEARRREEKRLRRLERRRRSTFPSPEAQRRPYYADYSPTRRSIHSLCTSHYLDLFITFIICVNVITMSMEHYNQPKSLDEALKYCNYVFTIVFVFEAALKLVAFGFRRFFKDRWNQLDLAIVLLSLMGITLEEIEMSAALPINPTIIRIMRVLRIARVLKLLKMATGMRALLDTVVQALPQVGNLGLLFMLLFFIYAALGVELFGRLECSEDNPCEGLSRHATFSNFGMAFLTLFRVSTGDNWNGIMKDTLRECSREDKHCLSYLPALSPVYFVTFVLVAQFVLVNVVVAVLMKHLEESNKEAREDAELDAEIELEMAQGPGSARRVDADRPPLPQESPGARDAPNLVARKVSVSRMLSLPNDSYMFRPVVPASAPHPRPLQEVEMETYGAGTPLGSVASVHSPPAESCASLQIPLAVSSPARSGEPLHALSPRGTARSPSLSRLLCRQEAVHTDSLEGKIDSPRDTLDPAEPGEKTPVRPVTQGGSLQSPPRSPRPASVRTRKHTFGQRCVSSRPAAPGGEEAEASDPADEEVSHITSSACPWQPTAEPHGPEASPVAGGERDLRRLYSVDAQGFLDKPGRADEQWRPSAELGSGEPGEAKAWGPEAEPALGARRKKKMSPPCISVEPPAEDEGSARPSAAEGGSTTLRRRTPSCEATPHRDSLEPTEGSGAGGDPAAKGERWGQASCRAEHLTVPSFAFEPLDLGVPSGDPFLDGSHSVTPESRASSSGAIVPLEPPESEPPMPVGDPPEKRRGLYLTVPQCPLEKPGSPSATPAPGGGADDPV

The assay addresses Cav3.2 (Homo sapiens, UniProt O95180). Kind of assay: Calcium flux FLIPR assay, HEK293 cells recombinantly expressing Cav3.2. It is filed as cell-based. The settings on record: Cav3.2-channel, Ca2+ entry stimulated by 10 mM CaCl2. The method, boiled down: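 Fluo-4-loaded HEK293 cells stably expressing Cav3.2, seeded overnight at 37 °C; compounds diluted in TEAC buffer (pH 7.2) and preincubated 3 min before Ca2+ entry triggered with CaCl2 at 10 mM final. Area under FLIPR fluorescence trace fitted sigmoidally; IC50 relative to vehicle signal.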
On the technique in general: A change in cytosolic calcium serves as a functional read-out for many receptors and channels.
A word on the IC50: it is the concentration at which inhibition is half-maximal. As to `COc1c(F)cc(Cn2ncc(NC(=O)Cc3ccc(C4(C)COC4)cc3)n2)cc1F` [Example 78, N-[2-(3,5-Difluoro-4-methoxy-benzyl)-2H-[1,2,3]triazol-4-yl]-2-[4-(3-methyl-oxetan-3-yl)-phenyl]-acetamide], the IC50 came out at 0.049 µM.
The result for `CC(C)c1ccc(CC(=O)Nc2cnn(Cc3ccc(OC(F)(F)F)c(F)c3)n2)cc1` [Example 187, N-[2-(3-Fluoro-4-trifluoromethoxy-benzyl)-2H-[1,2,3]triazol-4-yl]-2-(4-isopropyl-phenyl)-acetamide] reads 0.065 µM; that for `COc1cc(Cn2ncc(NC(=O)Cc3ccc(C(C)C)cc3)n2)ccc1F` [Example 153, N-[2-(4-Fluoro-3-methoxy-benzyl)-2H-[1,2,3]triazol-4-yl]-2-(4-isopropyl-phenyl)-acetamide], 0.07 µM; that for `COc1cc(Cn2ncc(NC(=O)Cc3ccc(N4CCCC4)nc3)n2)ccc1F` [Example 155, N-[2-(4-Fluoro-3-methoxy-benzyl)-2H-[1,2,3]triazol-4-yl]-2-(6-pyrrolidin-1-yl-pyridin-3-yl)-acetamide], 0.14 µM.
Take `COc1ccc(Cn2ncc(NC(=O)Cc3ccc(C(C)C)cc3)n2)cc1F` [Example 154, N-[2-(3-Fluoro-4-methoxy-benzyl)-2H-[1,2,3]triazol-4-yl]-2-(4-isopropyl-phenyl)-acetamide]: the IC50 came to 0.044 µM.
For `Cc1cc(Cn2ncc(NC(=O)Cc3ccc(C(C)(C)C)cc3)n2)ccc1C#N` [Example 162, 2-(4-tert-Butyl-phenyl)-N-[2-(4-cyano-3-methyl-benzyl)-2H-[1,2,3]triazol-4-yl]-acetamide], the IC50 turned out to be 0.036 µM.
The same measure for `Cc1ccc(Cn2ncc(NC(=O)Cc3ccc4c(cnn4C)c3)n2)cc1C#N` [Example 204, N-[2-(3-Cyano-4-methyl-benzyl)-2H-[1,2,3]triazol-4-yl]-2-(1-methyl-1H-indazol-5-yl)-acetamide]: 0.28 µM; for `COc1ccc(Cn2ncc(NC(=O)Cc3ccc4c(ccn4C)c3)n2)cc1` [Example 57, N-[2-(4-Methoxy-benzyl)-2H-[1,2,3]triazol-4-yl]-2-(1-methyl-1H-indol-5-yl)-acetamide]: 0.038 µM; for `Cc1cn(C)c2cc(CC(=O)Nc3cnn(Cc4ccc(C#N)c(F)c4)n3)ccc12` [Example 105, N-[2-(4-Cyano-3-fluoro-benzyl)-2H-[1,2,3]triazol-4-yl]-2-(1,3-dimethyl-1H-indol-6-yl)-acetamide]: 0.02 µM.
The result for `O=C(Cc1ccc(N2CCC(F)(F)C2)nc1)Nc1cnn(Cc2ccc(F)cc2)n1` [Example 94, 2-[6-(3,3-Difluoro-pyrrolidin-1-yl)-pyridin-3-yl]-N-[2-(4-fluoro-benzyl)-2H-[1,2,3]triazol-4-yl]-acetamide] reads 0.01 µM.
The result for `Cc1cc(Cn2ncc(NC(=O)Cc3ccc(C(C)C)cc3)n2)ccc1C#N` [Example 165, N-[2-(4-Cyano-3-methyl-benzyl)-2H-[1,2,3]triazol-4-yl]-2-(4-isopropyl-phenyl)-acetamide] reads 0.018 µM.
On to `COc1c(F)cc(Cn2ncc(NC(=O)Cc3ccc(C(C)C)cc3)n2)cc1F` [Example 80, N-[2-(3,5-Difluoro-4-methoxy-benzyl)-2H-[1,2,3]triazol-4-yl]-2-(4-isopropyl-phenyl)-acetamide], for which the 50% inhibitory concentration (IC50) came out at 0.029 µM.
The same measure for `CCN(CC)c1ccc(CC(=O)Nc2cnn(Cc3ccc(OC)cc3)n2)cn1` [Example 58, 2-(6-Diethylamino-pyridin-3-yl)-N-[2-(4-methoxy-benzyl)-2H-[1,2,3]triazol-4-yl]-acetamide]: 0.16 µM; for `COc1cc(Cn2ncc(NC(=O)Cc3ccc(OC4CC(F)(F)C4)cc3)n2)ccc1F` [Example 114]: 0.073 µM; for `COc1cc(Cn2ncc(NC(=O)Cc3ccc4cnn(C)c4c3)n2)ccc1F` [Example 109, N-[2-(4-Fluoro-3-methoxy-benzyl)-2H-[1,2,3]triazol-4-yl]-2-(1-methyl-1H-indazol-6-yl)-acetamide]: 0.19 µM.
With `CCOc1ccc(Cn2ncc(NC(=O)Cc3ccc4c(ccn4C)c3)n2)cc1` [Example 40, N-[2-(4-Ethoxy-benzyl)-2H-[1,2,3]triazol-4-yl]-2-(1-methyl-1H-indol-5-yl)-acetamide], the IC50 stood at 0.035 µM.
The result for `COC1(c2ccc(CC(=O)Nc3cnn(Cc4ccc(F)c(F)c4)n3)cc2)COC1` [Example 20, N-[2-(3,4-Difluoro-benzyl)-2H-[1,2,3]triazol-4-yl]-2-[4-(3-methoxy-oxetan-3-yl)-phenyl]-acetamide] reads 0.089 µM; that for `COc1ccc(Cn2ncc(NC(=O)Cc3ccc(OC4CC(F)(F)C4)cc3)n2)cc1F` [Example 125, 2-[4-(3,3-Difluoro-cyclobutoxy)-phenyl]-N-[2-(3-fluoro-4-methoxy-benzyl)-2H-[1,2,3]triazol-4-yl]-acetamide], 0.18 µM.
The result for `O=C(Cc1ccc2[nH]nc(C3CC3)c2c1)Nc1cnn(Cc2ccc(F)c(F)c2)n1` [Example 29, 2-(3-Cyclopropyl-1H-indazol-5-yl)-N-[2-(3,4-difluoro-benzyl)-2H-[1,2,3]triazol-4-yl]-acetamide] reads 0.12 µM.
The result for `COc1c(F)cc(Cn2ncc(NC(=O)Cc3ccc4c(c3)c(C)cn4C)n2)cc1F` [Example 150, N-[2-(3,5-Difluoro-4-methoxy-benzyl)-2H-[1,2,3]triazol-4-yl]-2-(1,3-dimethyl-1H-indol-5-yl)-acetamide] reads 0.016 µM; that for `COc1ccc(Cn2ncc(NC(=O)Cc3ccc(C4(C(F)(F)F)CC4)cc3)n2)cc1F` [Example 124, N-[2-(3-Fluoro-4-methoxy-benzyl)-2H-[1,2,3]triazol-4-yl]-2-[4-(1-trifluoromethyl-cyclopropyl)-phenyl]-acetamide], 0.25 µM; that for `COc1cc(Cn2ncc(NC(=O)Cc3ccc(N4CCC(F)(F)C4)nc3)n2)cc(F)c1F` [Example 219, N-[2-(3,4-Difluoro-5-methoxy-benzyl)-2H-[1,2,3]triazol-4-yl]-2-[6-(3,3-difluoro-pyrrolidin-1-yl)-pyridin-3-yl]-acetamide], 0.12 µM.
For the compound `COc1cc(Cn2ncc(NC(=O)Cc3ccc(C(C)(C)C)cc3)n2)ccc1C#N` [Example 239, 2-(4-tert-Butyl-phenyl)-N-[2-(4-cyano-3-methoxy-benzyl)-2H-[1,2,3]triazol-4-yl]-acetamide], the IC50 came to 0.21 µM.
With `Cn1ncc2ccc(CC(=O)Nc3cnn(Cc4ccc(OC(F)(F)F)c(F)c4)n3)cc21` [Example 185, N-[2-(3-Fluoro-4-trifluoromethoxy-benzyl)-2H-[1,2,3]triazol-4-yl]-2-(1-methyl-1H-indazol-6-yl)-acetamide], the half-inhibitory concentration (IC50) is 0.017 µM.
With `O=C(Cc1ccc(N2CCC(F)(F)C2)nc1)Nc1cnn(Cc2ccc(OC(F)(F)F)c(F)c2)n1` [Example 189, 2-[6-(3,3-Difluoro-pyrrolidin-1-yl)-pyridin-3-yl]-N-[2-(3-fluoro-4-trifluoromethoxy-benzyl)-2H-[1,2,3]triazol-4-yl]-acetamide], the half-maximal inhibitory concentration (IC50) stood at 0.017 µM.
Regarding `Cc1cn(C)c2cc(CC(=O)Nc3cnn(Cc4ccc(C#N)cc4)n3)ccc12` [Example 106, N-[2-(4-Cyano-benzyl)-2H-[1,2,3]triazol-4-yl]-2-(1,3-dimethyl-1H-indol-6-yl)-acetamide], the IC50 was 0.036 µM.
With `Cc1ccc(Cn2ncc(NC(=O)Cc3ccc(OC4CC(F)(F)C4)cc3)n2)cc1C#N` [Example 209, N-[2-(3-Cyano-4-methyl-benzyl)-2H-[1,2,3]triazol-4-yl]-2-[4-(3,3-difluoro-cyclobutoxy)-phenyl]-acetamide], the IC50 was determined as 0.18 µM.
With `O=C(Cc1ccc(N2CCCC2)nc1)Nc1cnn(Cc2ccc(OC(F)F)c(F)c2)n1` [Example 183, N-[2-(4-Difluoromethoxy-3-fluoro-benzyl)-2H-[1,2,3]triazol-4-yl]-2-(6-pyrrolidin-1-yl-pyridin-3-yl)-acetamide], the concentration for half-maximal inhibition (IC50) was found to be 0.026 µM.
The same measure for `CC1(c2ccc(CC(=O)Nc3cnn(Cc4ccc(F)cc4)n3)cc2)COC1` [Example 53, N-[2-(4-Fluoro-benzyl)-2H-[1,2,3]triazol-4-yl]-2-[4-(3-methyl-oxetan-3-yl)-phenyl]-acetamide]: 0.035 µM.
The result for `CCOc1ccc(Cn2ncc(NC(=O)Cc3ccc(N4CCC(F)(F)C4)nc3)n2)cc1` [Example 41, 2-[6-(3,3-Difluoro-pyrrolidin-1-yl)-pyridin-3-yl]-N-[2-(4-ethoxy-benzyl)-2H-[1,2,3]triazol-4-yl]-acetamide] reads 0.018 µM; that for `COc1ccc(Cn2ncc(NC(=O)Cc3ccc(N4CCC(F)(F)C4)nc3)n2)cc1F` [Example 126, 2-[6-(3,3-Difluoro-pyrrolidin-1-yl)-pyridin-3-yl]-N-[2-(3-fluoro-4-methoxy-benzyl)-2H-[1,2,3]triazol-4-yl]-acetamide], 0.047 µM; that for `CN(CC1CC1)c1ccc(CC(=O)Nc2cnn(Cc3ccc(F)c(F)c3)n2)cn1` [Example 12, 2-[6-(Cyclopropylmethyl-methyl-amino)-pyridin-3-yl]-N-[2-(3,4-difluoro-benzyl)-2H-[1,2,3]triazol-4-yl]-acetamide], 0.031 µM.
Take `CCCn1ncc2cc(CC(=O)Nc3cnn(Cc4ccc(F)c(F)c4)n3)ccc21` [Example 34, N-[2-(3,4-Difluoro-benzyl)-2H-[1,2,3]triazol-4-yl]-2-(1-propyl-1H-indazol-5-yl)-acetamide]: the IC50 amounted to 0.018 µM.
The same measure for `COc1cc(Cn2ncc(NC(=O)Cc3ccc(N4CCC(F)(F)C4)nc3)n2)ccc1F` [Example 115, 2-[6-(3,3-Difluoro-pyrrolidin-1-yl)-pyridin-3-yl]-N-[2-(4-fluoro-3-methoxy-benzyl)-2H-[1,2,3]triazol-4-yl]-acetamide]: 0.045 µM.
Consider `Cc1ccc(Cn2ncc(NC(=O)Cc3ccc4cnn(C)c4c3)n2)cc1C#N` [Example 215, N-[2-(3-Cyano-4-methyl-benzyl)-2H-[1,2,3]triazol-4-yl]-2-(1-methyl-1H-indazol-6-yl)-acetamide], for which the half-inhibitory concentration (IC50) turned out to be 0.65 µM.
